Laboratory results published in ChEMBL document CHEMBL1128995, “Synthesis and antitumor activity of (2R,3R)-2,3-dihydroxy- and -2,3-dialkoxy-1,4-diaminobutane platinum(II) complexes” (Bioorg Med Chem Lett, 1996).
Values joined by “and” are separate entries in the source; they are usually repeats but may differ in a detail not shown here. Equal values may be shown once.

Tests used:
Assay type in all cases: functional, organism-based
Settings in all cases: Mus musculus
L1210 [1] = test: Compound was tested for antitumor activity against L1210 Leukemia in mice at 50 mg/kg dose upon intraperitoneal administration; design: dose 50 mg/kg
L1210 [2] = test: Compound was tested for antitumor activity against L1210 Leukemia in mice at 12.5 mg/kg dose upon intraperitoneal administration; design: dose 12.5 mg/kg
L1210 [3] = test: Compound was tested for antitumor activity against L1210 Leukemia in mice at 6.25 mg/kg dose upon intraperitoneal administration; design: dose 6.25 mg/kg
L1210 [4] = test: Compound was tested for antitumor activity against L1210 Leukemia in mice at 100 mg/kg dose upon intraperitoneal administration; design: dose 100 mg/kg
L1210 [5] = test: Compound was tested for antitumor activity against L1210 Leukemia in mice at 25 mg/kg dose upon intraperitoneal administration; design: dose 25 mg/kg
L1210 [6] = test: Compound was tested for antitumor activity against L1210 Leukemia in mice at 50 mg/kg dose upon intraperitoneal administration: Toxic; design: dose 50 mg/kg
L1210 [7] = test: Compound was tested for antitumor activity against L1210 Leukemia in mice at 25 mg/kg dose upon intraperitoneal administration: Toxic; design: dose 25 mg/kg
L1210 [8] = test: Compound was tested for antitumor activity against L1210 Leukemia in mice at 12.5 mg/kg dose upon intraperitoneal administration: Toxic; design: dose 12.5 mg/kg
L1210 [9] = test: Compound was tested for antitumor activity against L1210 Leukemia in mice at 1.5 mg/kg dose upon intraperitoneal administration; design: dose 1.5 mg/kg
L1210 [10] = test: Compound was tested for antitumor activity against L1210 Leukemia in mice at 3.1 mg/kg dose upon intraperitoneal administration; design: dose 3.1 mg/kg

| Substance | T/C (L1210 [1]) [%] | T/C (L1210 [2]) | T/C (L1210 [3]) | T/C (L1210 [4]) [%] | T/C (L1210 [5]) [%] | Activity (L1210 [6]) | Activity (L1210 [7]) | Activity (L1210 [8]) | T/C (L1210 [9]) [%] | T/C (L1210 [10]) [%] |
| --- | --- | --- | --- | --- | --- | --- | --- | --- | --- | --- |
| CARBOPLATIN | 196 | 125% | 107% | 197 | 148 | – | – | – | – | – |
| (2R,3R)-2,3-dihydroxy-1,4-diaminobutane Platinum (II) complex | – | 118% and 131% | 125% and 135% | 195 | 148 | Toxic | Toxic | – | – | – |
| CISPLATIN | – | – | 82% | – | – | – | Toxic | Toxic | 142 | 167 |
